Columns and labels:
Format in all cases: in vivo
transplanted rice = experiment: Test Example 1: preemergence treatment under submerged conditions, effect on crop; details: dose 2.52 g/a
Excerpt: (§1) Test on the Herbicidal Effects in Preemergence Treatment on Weeds Under Submerged Conditions
(§2) Alluvial soil was put in 1/30000-are styrol cups and admixed with water so that it was submerged at a depth of 4 cm. In each cup, seeds of barnyardgrass, bulrush and ducksalad were sown together, and rice seedlings at the 2.5-leaf stage were transplanted. On the same day as the seeding, emulsifiable concentrates containing compounds of the present invention formulated in accordance with Formulation Example 2 were applied to the water surfaces at predetermined doses after diluted with water. The cups were placed in a greenhouse at 25 to 30° C. to grow the plants. Three weeks after the application, the herbicidal effects against various plants were determined on the following evaluation scale.
(§3) 5 mortality of 90% or above (nearly complete death)
(§4) 4 mortality of at least 70% and less than 90%
(§5) 3 mortality of at least 40% and less than 70%
(§6) 2 mortality of at least 20% and less than 40%
(§7) 1 mortality of at least 5% and less than 20%
(§8) 0 mortality of less than 5% (almost ineffective)
(§9) A: barnyardgrass, B: bulrush, C: ducksalad, D: large crabgrass, E: giant foxtail, F: wild oat, G: water foxtail, H: Italian ryegrass, I: velvetleaf, J: common ragweed, K: redroot pigweed, L: common lambsquater, M: posumbu knotweed, N: common chickweed, O: beadstraw, a: transplanted rice, b: corn, c: soybean, d: direct-seeded rice, e: wheat, f: sugar beet.
(§10) The doses (g/a) represents the amounts in g per 1 are (a) applied after adjustment of concentration adjustment.

common chickweed [1] = experiment: Test Example 4: herbicidal effect in foliage treatment; details: dose 3.2 g/a, three weeks after the application
Excerpt: (§11) Test on the Herbicidal Effect in Foliage Treatment
(§12) Sterilized diluvial soil was put in plastic boxes with a length of 21 cm, a width of 13 cm and a depth of 7 cm, and seeds of barnyardgrass, large crabgrass, giant foxtail, wild oat, blackgrass, velvetleaf, common ragweed, redroot pigweed, common lambsquater, posumbu knotweed, common chickweed, corn, soybean, rice, wheat and sugar beet were sown in spots and covered with an about 1.5 cm-thick soil layer. The boxes were placed in a greenhouse at 25 to 30° C. to grow the plants. After 14 days, emulsifiable concentrates containing compounds of the present invention formulated in accordance with Formulation Example 2 were uniformly applied to the foliage at predetermined doses through a small sprayer after diluted with water. Three weeks after the application, the herbicidal effects against various plants were determined on the same evaluation scale as in Test Example 1.
as §9, §10

Italian ryegrass [2] = experiment: as above; details: dose 3.2 g/a, three weeks after the application
Excerpt: as §11, §12, §9, §10

redroot pigweed [3] = experiment: as above; details: dose 3.2 g/a, three weeks after the application
Excerpt: as §11, §12, §9, §10

large crabgrass [4] = experiment: as above; details: dose 3.2 g/a, three weeks after the application
Excerpt: as §11, §12, §9, §10

velvetleaf = experiment: as above; details: dose 3.2 g/a, three weeks after the application
Excerpt: as §11, §12, §9, §10

posumbu knotweed [5] = experiment: as above; details: dose 3.2 g/a, three weeks after the application
Excerpt: as §11, §12, §9, §10

common lambsquater [6] = experiment: as above; details: dose 3.2 g/a, three weeks after the application
Excerpt: as §11, §12, §9, §10

water foxtail [7] = experiment: as above; details: dose 3.2 g/a, three weeks after the application
Excerpt: as §11, §12, §9, §10

giant foxtail [8] = experiment: as above; details: dose 3.2 g/a, three weeks after the application
Excerpt: as §11, §12, §9, §10

barnyardgrass [9] = experiment: as above; details: dose 3.2 g/a, three weeks after the application
Excerpt: as §11, §12, §9, §10

common ragweed [10] = experiment: as above; details: dose 3.2 g/a, three weeks after the application
Excerpt: as §11, §12, §9, §10

bulrush [11] = experiment: Test Example 2: herbicidal effects during the vegetation period under submerged conditions; details: treatment during the vegetation period under submerged conditions; dose 2.52 g/a
Method: (§13) Test on the Herbicidal Effects on Weeds During the Vegetation Period Under Submerged Conditions
(§14) Alluvial soil was put in 1/30000-are styrol cups and admixed with water so that it was submerged at a depth of 4 cm. In each cup, seeds of barnyardgrass, bulrush and ducksalad were sown together, and the cups were placed in a greenhouse at 25 to 30° C. to grow the plants. When the barnyardgrass, bulrush and ducksalad reached the 1- or 2-leaf stage, emulsifiable concentrates containing compounds of the present invention formulated in accordance with Formulation Example 2 were applied to the water surfaces at predetermined doses after diluted with water. Three weeks after the application, the herbicidal effects against various plants were determined on the same evaluation scale as in Test Example 1.
as §9, §10

ducksalad [12] = experiment: as above; details: treatment during the vegetation period under submerged conditions; dose 2.52 g/a
Method: as §13, §14, §9, §10

barnyardgrass [13] = experiment: as above; details: treatment during the vegetation period under submerged conditions; dose 2.52 g/a
Method: as §13, §14, §9, §10

common chickweed [14] = experiment: Test Example 3: herbicidal effects in soil treatment; details: dose 3.2 g/a
Excerpt: (§15) Test on the Herbicidal Effects in Soil Treatment
as §12, with “chickweed” for “chickweed,”, “Emulsifiable” for “The boxes were placed in a greenhouse at 25 to 30° C. to grow the plants. After 14 days, emulsifiable”, “soil surfaces” for “foliage”, “dilute” for “diluted”
as §9, §10

Italian ryegrass [15] = experiment: as above; details: dose 3.2 g/a
Excerpt: as §15
as §12, with “chickweed” for “chickweed,”, “Emulsifiable” for “The boxes were placed in a greenhouse at 25 to 30° C. to grow the plants. After 14 days, emulsifiable”, “soil surfaces” for “foliage”, “dilute” for “diluted”
as §9, §10

redroot pigweed [16] = experiment: as above; details: dose 3.2 g/a
Excerpt: as §15
as §12, with “chickweed” for “chickweed,”, “Emulsifiable” for “The boxes were placed in a greenhouse at 25 to 30° C. to grow the plants. After 14 days, emulsifiable”, “soil surfaces” for “foliage”, “dilute” for “diluted”
as §9, §10

large crabgrass [17] = experiment: as above; details: dose 3.2 g/a
Excerpt: as §15
as §12, with “chickweed” for “chickweed,”, “Emulsifiable” for “The boxes were placed in a greenhouse at 25 to 30° C. to grow the plants. After 14 days, emulsifiable”, “soil surfaces” for “foliage”, “dilute” for “diluted”
as §9, §10

posumbu knotweed [18] = experiment: as above; details: dose 3.2 g/a
Excerpt: as §15
as §12, with “chickweed” for “chickweed,”, “Emulsifiable” for “The boxes were placed in a greenhouse at 25 to 30° C. to grow the plants. After 14 days, emulsifiable”, “soil surfaces” for “foliage”, “dilute” for “diluted”
as §9, §10

common lambsquater [19] = experiment: as above; details: dose 3.2 g/a
Excerpt: as §15
as §12, with “chickweed” for “chickweed,”, “Emulsifiable” for “The boxes were placed in a greenhouse at 25 to 30° C. to grow the plants. After 14 days, emulsifiable”, “soil surfaces” for “foliage”, “dilute” for “diluted”
as §9, §10

water foxtail [20] = experiment: as above; details: dose 3.2 g/a
Excerpt: as §15
as §12, with “chickweed” for “chickweed,”, “Emulsifiable” for “The boxes were placed in a greenhouse at 25 to 30° C. to grow the plants. After 14 days, emulsifiable”, “soil surfaces” for “foliage”, “dilute” for “diluted”
as §9, §10

giant foxtail [21] = experiment: as above; details: dose 3.2 g/a
Excerpt: as §15
as §12, with “chickweed” for “chickweed,”, “Emulsifiable” for “The boxes were placed in a greenhouse at 25 to 30° C. to grow the plants. After 14 days, emulsifiable”, “soil surfaces” for “foliage”, “dilute” for “diluted”
as §9, §10

barnyardgrass [22] = experiment: as above; details: dose 3.2 g/a
Excerpt: as §15
as §12, with “chickweed” for “chickweed,”, “Emulsifiable” for “The boxes were placed in a greenhouse at 25 to 30° C. to grow the plants. After 14 days, emulsifiable”, “soil surfaces” for “foliage”, “dilute” for “diluted”
as §9, §10

common ragweed [23] = experiment: as above; details: dose 3.2 g/a
Excerpt: as §15
as §12, with “chickweed” for “chickweed,”, “Emulsifiable” for “The boxes were placed in a greenhouse at 25 to 30° C. to grow the plants. After 14 days, emulsifiable”, “soil surfaces” for “foliage”, “dilute” for “diluted”
as §9, §10

bulrush [24] = experiment: Test Example 1: herbicidal effects in preemergence treatment under submerged conditions; details: dose 2.52 g/a
Excerpt: as §1, §2, §3, §4, §5, §6, §7, §8, §9, §10

ducksalad [25] = experiment: as above; details: dose 2.52 g/a
Excerpt: as §1, §2, §3, §4, §5, §6, §7, §8, §9, §10

barnyardgrass [26] = experiment: as above; details: dose 2.52 g/a
Excerpt: as §1, §2, §3, §4, §5, §6, §7, §8, §9, §10

## CCOC(=O)N(c1ccccc1CN1COC(C)C(C)C1=O)S(=O)(=O)C(F)(F)F (stereo not shown) [II-71]
Transplanted rice
  a: transplanted rice, effect on crop (evaluation scale 0-5): 0 (mortality of less than 5% (almost ineffective))
Common chickweed [1]
  N: common chickweed, herbicidal effect: 4 (mortality of at least 70% and less than 90%)
Italian ryegrass [2]
  H: Italian ryegrass, herbicidal effect: 1 (mortality of at least 5% and less than 20%)
Redroot pigweed [3]
  K: redroot pigweed, herbicidal effect: 0 (mortality of less than 5% (almost ineffective))
Large crabgrass [4]
  D: large crabgrass, herbicidal effect: 4 (mortality of at least 70% and less than 90%)
velvetleaf
  I: velvetleaf, herbicidal effect: 5 (mortality of 90% or above (nearly complete death))
Posumbu knotweed [5]
  M: posumbu knotweed, herbicidal effect: 0 (mortality of less than 5% (almost ineffective))
Common lambsquater [6]
  L: common lambsquater, herbicidal effect: 0 (mortality of less than 5% (almost ineffective))
Water foxtail [7]
  G: water foxtail, herbicidal effect: 5 (mortality of 90% or above (nearly complete death))
Giant foxtail [8]
  E: giant foxtail, herbicidal effect: 4 (mortality of at least 70% and less than 90%)
Barnyardgrass [9]
  A: barnyardgrass, herbicidal effect: 5 (mortality of 90% or above (nearly complete death))
Common ragweed [10]
  J: common ragweed, herbicidal effect: 3 (mortality of at least 40% and less than 70%)
Bulrush [11]
  B: bulrush, herbicidal effect (evaluation scale 0-5): 5 (mortality of 90% or above (nearly complete death))
Ducksalad [12]
  C: ducksalad, herbicidal effect (evaluation scale 0-5): 5 (mortality of 90% or above (nearly complete death))
Barnyardgrass [13]
  A: barnyardgrass, herbicidal effect (evaluation scale 0-5): 5 (mortality of 90% or above (nearly complete death))
Common chickweed [14]
  N: common chickweed, herbicidal effect (evaluation scale 0-5): 3 (mortality of at least 40% and less than 70%)
Italian ryegrass [15]
  H: Italian ryegrass, herbicidal effect (evaluation scale 0-5): 2 (mortality of at least 20% and less than 40%)
Redroot pigweed [16]
  K: redroot pigweed, herbicidal effect (evaluation scale 0-5): 5 (mortality of 90% or above (nearly complete death))
Large crabgrass [17]
  D: large crabgrass, herbicidal effect (evaluation scale 0-5): 5 (mortality of 90% or above (nearly complete death))
Posumbu knotweed [18]
  M: posumbu knotweed, herbicidal effect (evaluation scale 0-5): 3 (mortality of at least 40% and less than 70%)
Common lambsquater [19]
  L: common lambsquater, herbicidal effect (evaluation scale 0-5): 0 (mortality of less than 5% (almost ineffective))
Water foxtail [20]
  G: water foxtail, herbicidal effect (evaluation scale 0-5): 5 (mortality of 90% or above (nearly complete death))
Giant foxtail [21]
  E: giant foxtail, herbicidal effect (evaluation scale 0-5): 4 (mortality of at least 70% and less than 90%)
Barnyardgrass [22]
  A: barnyardgrass, herbicidal effect (evaluation scale 0-5): 5 (mortality of 90% or above (nearly complete death))
Common ragweed [23]
  J: common ragweed, herbicidal effect (evaluation scale 0-5): 5 (mortality of 90% or above (nearly complete death))
Bulrush [24]
  B: bulrush, herbicidal effect (evaluation scale 0-5): 5 (mortality of 90% or above (nearly complete death))
Ducksalad [25]
  C: ducksalad, herbicidal effect (evaluation scale 0-5): 5 (mortality of 90% or above (nearly complete death))
Barnyardgrass [26]
  A: barnyardgrass, herbicidal effect (evaluation scale 0-5): 5 (mortality of 90% or above (nearly complete death))

Reference: patent publication US20120029187A1, “HALOALKYLSULFONANILIDE DERIVATIVE” (Nissan Chemical Industries, Ltd., priority 2009, published 2012)
